Test results from PubChem BioAssay AID192 (DTP/NCI, 2004).
Where “and” joins values, the source holds several entries; their conditions need not be identical. Equal entries are not always repeated. Toxic doses and inconclusive results are not listed.

Test system: BDF1 mice, B16 melanoma ip, median survival T/C
Experiment: NCI In Vivo Anticancer Drug Screen. Data for tumor model B16 Melanoma (intraperitoneal) in B6D2F1 (BDF1) mice
Settings: endpoint: median survival time, higher = longer survival
Procedure, shortened: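 Survival or tumor size is measured after treatment of tumor-bearing mice and normalised to the vehicle-treated control group.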

Structure (SMILES): COc1cc(NS(C)(=O)=O)ccc1Nc1c2ccccc2nc2ccccc12
- T/C (dose: 0.1 mg/kg/injection, schedule: Q01DX009 (ip), vehicle: saline): 102 % of control
- T/C (dose: 0.2 mg/kg/injection, schedule: Q01DX009 (ip), vehicle: saline): 118 % of control
- T/C (dose: 0.25 mg/kg/injection, schedule: Q01DX009 (ip), vehicle: other): 119 % of control
- T/C (dose: 0.5 mg/kg/injection, schedule: Q01DX009 (ip), vehicle: Klucel (hydroxypropylcellulose) (HPC)): 183 % of control
- T/C (dose: 0.5 mg/kg/injection, schedule: Q01DX009 (ip), vehicle: lactic acid): 150 % of control
- T/C (dose: 0.5 mg/kg/injection, schedule: Q01DX009 (ip), vehicle: other): 120 % of control
- T/C (dose: 0.5 mg/kg/injection, schedule: Q03HX024 (oral), vehicle: lactic acid): 100 % of control
- T/C (dose: 0.75 mg/kg/injection, schedule: Q01DX009 (ip), vehicle: other): 113 % of control
- T/C (dose: 0.8 mg/kg/injection, schedule: Q01DX005 (iv), vehicle: lactic acid): 100 % of control
- T/C (dose: 0.8 mg/kg/injection, schedule: Q01DX009 (ip), vehicle: Klucel (hydroxypropylcellulose) (HPC)): 180 % of control
- T/C (dose: 0.8 mg/kg/injection, schedule: Q01DX009 (ip), vehicle: saline): 177 % of control
- T/C (dose: 0.8 mg/kg/injection, schedule: Q04DX003 (iv), vehicle: lactic acid): 102 % of control
- T/C (dose: 1.0 mg/kg/injection, schedule: Q01DX009 (ip), vehicle: Klucel (hydroxypropylcellulose) (HPC)): 160 % of control and 166 % of control and 189 % of control
- T/C (dose: 1.0 mg/kg/injection, schedule: Q01DX009 (ip), vehicle: clinical formulation): 183 % of control
- T/C (dose: 1.0 mg/kg/injection, schedule: Q01DX009 (ip), vehicle: lactic acid): 202 % of control
- T/C (dose: 1.0 mg/kg/injection, schedule: Q01DX009 (oral), vehicle: lactic acid): 96 % of control
- T/C (dose: 1.0 mg/kg/injection, schedule: Q01DX009 (oral), vehicle: other): 106 % of control and 109 % of control
- T/C (dose: 1.0 mg/kg/injection, schedule: Q03HX024 (oral), vehicle: lactic acid): 97 % of control
- T/C (dose: 1.0 mg/kg/injection, schedule: Q04DX003 (ip), vehicle: other): 118 % of control
- T/C (dose: 1.25 mg/kg/injection, schedule: Q01DX009 (ip), vehicle: saline): 177 % of control
- T/C (dose: 1.5 mg/kg/injection, schedule: Q01DX009 (ip), vehicle: other): 114 % of control
- T/C (dose: 1.6 mg/kg/injection, schedule: Q01DX005 (iv), vehicle: lactic acid): 110 % of control
- T/C (dose: 1.6 mg/kg/injection, schedule: Q04DX003 (iv), vehicle: lactic acid): 92 % of control
- T/C (dose: 2.0 mg/kg/injection, schedule: Q01DX009 (ip), vehicle: Klucel (hydroxypropylcellulose) (HPC)): 184 % of control
- T/C (dose: 2.0 mg/kg/injection, schedule: Q01DX009 (ip), vehicle: clinical formulation): 212 % of control
- T/C (dose: 2.0 mg/kg/injection, schedule: Q01DX009 (ip), vehicle: lactic acid): 218 % of control
- T/C (dose: 2.0 mg/kg/injection, schedule: Q01DX009 (ip), vehicle: other): 158 % of control
- T/C (dose: 2.0 mg/kg/injection, schedule: Q01DX009 (oral), vehicle: lactic acid): 98 % of control
- T/C (dose: 2.0 mg/kg/injection, schedule: Q01DX009 (oral), vehicle: other): 105 % of control and 109 % of control
- T/C (dose: 2.0 mg/kg/injection, schedule: Q03HX016 (oral), vehicle: lactic acid): 101 % of control
- T/C (dose: 2.0 mg/kg/injection, schedule: Q03HX024 (oral), vehicle: lactic acid): 101 % of control
- T/C (dose: 2.0 mg/kg/injection, schedule: Q04DX003 (oral), vehicle: lactic acid): 105 % of control
- T/C (dose: 2.0 mg/kg/injection, schedule: Q04DX003 (oral), vehicle: other): 105 % of control and 96 % of control
- T/C (dose: 3.0 mg/kg/injection, schedule: Q01DX009 (ip), vehicle: Klucel (hydroxypropylcellulose) (HPC)): 250 % of control
- T/C (dose: 3.12 mg/kg/injection, schedule: Q01DX009 (ip), vehicle: saline): 113 % of control
- T/C (dose: 3.3 mg/kg/injection, schedule: Q01DX005 (iv), vehicle: lactic acid): 155 % of control
- T/C (dose: 3.3 mg/kg/injection, schedule: Q04DX003 (iv), vehicle: lactic acid): 105 % of control
- T/C (dose: 3.75 mg/kg/injection, schedule: Q04DX003 (ip), vehicle: clinical formulation): 173 % of control
- T/C (dose: 4.0 mg/kg/injection, schedule: Q01DX009 (oral), vehicle: lactic acid): 105 % of control
- T/C (dose: 4.0 mg/kg/injection, schedule: Q01DX009 (oral), vehicle: other): 100 % of control and 96 % of control
- T/C (dose: 4.0 mg/kg/injection, schedule: Q04DX003 (oral), vehicle: lactic acid): 110 % of control
- T/C (dose: 4.0 mg/kg/injection, schedule: Q04DX003 (oral), vehicle: other): 97 % of control and 105 % of control and 103 % of control
- T/C (dose: 5.0 mg/kg/injection, schedule: Q01DX009 (ip), vehicle: Klucel (hydroxypropylcellulose) (HPC)): 223 % of control
- T/C (dose: 6.0 mg/kg/injection, schedule: Q01DX009 (ip), vehicle: other): 72 % of control
- T/C (dose: 6.25 mg/kg/injection, schedule: Q01DX009 (ip), vehicle: saline): 124 % of control
- T/C (dose: 6.5 mg/kg/injection, schedule: Q01DX005 (iv), vehicle: lactic acid): 112 % of control
- T/C (dose: 6.5 mg/kg/injection, schedule: Q04DX003 (iv), vehicle: lactic acid): 107 % of control
- T/C (dose: 7.5 mg/kg/injection, schedule: Q04DX003 (ip), vehicle: clinical formulation): 193 % of control
- T/C (dose: 8.0 mg/kg/injection, schedule: Q01DX001 (ip), vehicle: lactic acid): 151 % of control
- T/C (dose: 8.0 mg/kg/injection, schedule: Q01DX001 (oral), vehicle: lactic acid): 110 % of control
- T/C (dose: 8.0 mg/kg/injection, schedule: Q01DX009 (oral), vehicle: other): 105 % of control and 103 % of control
- T/C (dose: 8.0 mg/kg/injection, schedule: Q04DX003 (ip), vehicle: other): 188 % of control
- T/C (dose: 8.0 mg/kg/injection, schedule: Q04DX003 (oral), vehicle: lactic acid): 111 % of control
- T/C (dose: 8.0 mg/kg/injection, schedule: Q04DX003 (oral), vehicle: other): 105 % of control [middle of 4 runs]
- T/C (dose: 8.0 mg/kg/injection, schedule: Q08DX002 (oral), vehicle: lactic acid): 107 % of control
- T/C (dose: 12.5 mg/kg/injection, schedule: Q01DX009 (ip), vehicle: saline): 163 % of control
- T/C (dose: 12.5 mg/kg/injection, schedule: Q04DX003 (ip), vehicle: Klucel (hydroxypropylcellulose) (HPC)): 166 % of control
- T/C (dose: 13.0 mg/kg/injection, schedule: Q04DX003 (iv), vehicle: lactic acid): 120 % of control
- T/C (dose: 15.0 mg/kg/injection, schedule: Q04DX003 (ip), vehicle: clinical formulation): 173 % of control
- T/C (dose: 16.0 mg/kg/injection, schedule: Q01DX001 (oral), vehicle: lactic acid): 110 % of control
- T/C (dose: 16.0 mg/kg/injection, schedule: Q04DX003 (ip), vehicle: other): 152 % of control
- T/C (dose: 16.0 mg/kg/injection, schedule: Q04DX003 (oral), vehicle: other): 97 % of control and 113 % of control and 110 % of control
- T/C (dose: 16.0 mg/kg/injection, schedule: Q08DX002 (oral), vehicle: lactic acid): 108 % of control
- T/C (dose: 25.0 mg/kg/injection, schedule: Q01DX001 (ip), vehicle: saline sonified): 166 % of control
- T/C (dose: 25.0 mg/kg/injection, schedule: Q01DX001 (ip), vehicle: saline): 160 % of control
- T/C (dose: 25.0 mg/kg/injection, schedule: Q04DX003 (ip), vehicle: Klucel (hydroxypropylcellulose) (HPC)): 285 % of control
- T/C (dose: 26.0 mg/kg/injection, schedule: Q04DX003 (iv), vehicle: lactic acid): 120 % of control
- T/C (dose: 32.0 mg/kg/injection, schedule: Q01DX001 (oral), vehicle: lactic acid): 116 % of control
- T/C (dose: 32.0 mg/kg/injection, schedule: Q04DX003 (oral), vehicle: other): 121 % of control [middle of 4 runs]
- T/C (dose: 32.0 mg/kg/injection, schedule: Q08DX002 (oral), vehicle: lactic acid): 115 % of control
- T/C (dose: 50.0 mg/kg/injection, schedule: Q01DX001 (ip), vehicle: saline sonified): 102 % of control
- T/C (dose: 64.0 mg/kg/injection, schedule: Q04DX003 (oral), vehicle: other): 110 % of control
- T/C (dose: 100.0 mg/kg/injection, schedule: Q01DX001 (ip), vehicle: saline sonified): 169 % of control

Structure (SMILES): O=C(O)C(S)c1ccc2ccccc2c1 (stereo not given)
- T/C (dose: 100.0 mg/kg/injection, schedule: Q01DX009 (ip), vehicle: Klucel (hydroxypropylcellulose) (HPC)): 101 % of control
- T/C (dose: 200.0 mg/kg/injection, schedule: Q01DX009 (ip), vehicle: Klucel (hydroxypropylcellulose) (HPC)): 96 % of control

Structure (SMILES): COc1ccc(C[C@H](N)C(=O)NC2C(CO)OC(n3cnc4c(N(C)C)ncnc43)C2O)cc1 (stereo not given in full)
- T/C (dose: 4.0 mg/kg/injection, schedule: Q01DX009 (ip), vehicle: saline): 114 % of control
- T/C (dose: 8.0 mg/kg/injection, schedule: Q01DX009 (ip), vehicle: saline): 107 % of control
- T/C (dose: 16.0 mg/kg/injection, schedule: Q01DX009 (ip), vehicle: saline): 109 % of control
- T/C (dose: 32.0 mg/kg/injection, schedule: Q01DX009 (ip), vehicle: saline): 110 % of control and 114 % of control
- T/C (dose: 40.0 mg/kg/injection, schedule: Q01DX009 (ip), vehicle: saline): 108 % of control
